Active and inactive are the calls of the source.
What was measured:
[1] = biological target: T1, Protein RecA (Mycobacterium tuberculosis, UniProt P9WHJ3); assay: Fluorescence Cell-Free Homogeneous Dose Retest to Identify Inhibitors of RecA-Intein Splicing Activity. [Related pubchem assays (depositor defined):AID2097, AID2223, AID489010, AID492950]; type: functional
T1 sequence (P9WHJ3 whole entry): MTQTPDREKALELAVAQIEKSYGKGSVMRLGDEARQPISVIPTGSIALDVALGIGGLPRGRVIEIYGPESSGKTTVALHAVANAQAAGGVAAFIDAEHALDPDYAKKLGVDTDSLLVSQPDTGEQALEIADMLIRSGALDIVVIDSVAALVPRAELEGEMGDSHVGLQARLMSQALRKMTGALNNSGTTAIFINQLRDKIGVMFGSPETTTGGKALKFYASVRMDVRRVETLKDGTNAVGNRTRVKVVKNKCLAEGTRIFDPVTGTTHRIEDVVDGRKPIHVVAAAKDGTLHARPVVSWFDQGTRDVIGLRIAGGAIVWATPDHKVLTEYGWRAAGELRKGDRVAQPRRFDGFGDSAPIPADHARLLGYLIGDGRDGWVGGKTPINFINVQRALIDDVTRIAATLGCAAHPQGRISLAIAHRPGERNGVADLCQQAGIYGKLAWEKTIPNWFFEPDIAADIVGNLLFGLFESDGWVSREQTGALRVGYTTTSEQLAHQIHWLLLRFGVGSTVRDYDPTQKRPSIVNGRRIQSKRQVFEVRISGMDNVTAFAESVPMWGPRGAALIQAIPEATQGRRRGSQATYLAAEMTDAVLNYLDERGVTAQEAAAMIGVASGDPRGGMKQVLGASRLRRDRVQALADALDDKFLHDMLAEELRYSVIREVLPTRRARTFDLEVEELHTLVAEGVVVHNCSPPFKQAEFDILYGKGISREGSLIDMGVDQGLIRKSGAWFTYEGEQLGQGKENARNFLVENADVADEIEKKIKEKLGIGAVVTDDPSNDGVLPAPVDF

[2] = biological target: T2, Replicative DNA helicase DnaB (Mycobacterium tuberculosis, UniProt P9WMR3); assay: DnaB intein splicing inhibitors, dose response, biochemical, cell-free fluorescence (AID 449749); type: functional
T2 sequence (P9WMR3 whole entry): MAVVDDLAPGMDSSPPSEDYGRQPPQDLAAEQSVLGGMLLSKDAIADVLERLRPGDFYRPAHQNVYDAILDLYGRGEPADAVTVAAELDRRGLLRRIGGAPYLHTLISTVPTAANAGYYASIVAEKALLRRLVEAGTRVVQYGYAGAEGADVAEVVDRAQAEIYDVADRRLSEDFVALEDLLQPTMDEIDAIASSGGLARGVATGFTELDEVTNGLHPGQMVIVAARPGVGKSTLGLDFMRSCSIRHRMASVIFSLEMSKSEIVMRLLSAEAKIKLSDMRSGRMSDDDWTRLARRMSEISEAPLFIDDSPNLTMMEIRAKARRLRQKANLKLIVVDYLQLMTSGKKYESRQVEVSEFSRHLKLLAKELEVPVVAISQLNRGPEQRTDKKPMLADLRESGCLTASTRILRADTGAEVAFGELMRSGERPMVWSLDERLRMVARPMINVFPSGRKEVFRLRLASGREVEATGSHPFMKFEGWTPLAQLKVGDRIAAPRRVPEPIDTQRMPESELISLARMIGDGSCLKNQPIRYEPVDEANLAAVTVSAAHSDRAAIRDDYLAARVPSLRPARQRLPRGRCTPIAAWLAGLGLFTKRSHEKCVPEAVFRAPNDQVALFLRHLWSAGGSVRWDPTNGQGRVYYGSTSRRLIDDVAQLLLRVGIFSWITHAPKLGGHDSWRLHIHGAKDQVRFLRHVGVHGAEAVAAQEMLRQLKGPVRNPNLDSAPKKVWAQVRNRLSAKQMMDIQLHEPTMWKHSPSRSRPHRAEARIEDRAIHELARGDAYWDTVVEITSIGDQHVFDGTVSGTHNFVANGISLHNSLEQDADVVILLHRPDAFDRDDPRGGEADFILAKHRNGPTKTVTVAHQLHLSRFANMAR

[3] = growth suppression of PTEN-null colon cells, dose response, cell-based, HCT116 PTEN knockout (AID 1047); type: functional;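 note: HCT116 colon tumor cells with PTEN knocked out; cells exposed to compound for 60 hours before readout; potency for loss of cell viability measured by luminescence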
[4] = growth suppression of beta-catenin-knockout colon cells, dose response, cell-based, HCT116, human colon tumor (AID 1045); type: functional;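 note: HCT116 colon tumor cells with beta catenin knocked out; cells exposed to compound for 60 hours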
[5] = Luminescence Cell-Based Dose Confirmation HTS to Identify Inhibitors of Platelet Dense Granule Release. [Related pubchem assays: 1663 (Primary HTS), 1678 (Summary of Project)]; type: functional
[6] = biological target: Luciferin 4-monooxygenase (Photinus pyralis, UniProt P08659); assay: firefly luciferase enzyme inhibitors, dose response, biochemical, luminescence (AID 1891)
[7] = cytotoxicity in HEK-293T cells, dose response, cytotoxicity control for TCR NF-kB inhibitor project, luminescence, T-cell screen hits (AID 489026); type: functional, cell-based;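 note: cells exposed to compound about 14 hours before the viability readout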
[8] = biological target: Cytochrome P450 2C19 (Homo sapiens, UniProt P33261); assay: Cytochrome panel assay with activity outcomes. Panel member name: p450-cyp2c19 Compounds with AC50 equal or less than 10 uM are considered active; type: functional; conditions: read-out: AC50
[9] = biological target: FAD-linked sulfhydryl oxidase ALR (Homo sapiens, UniProt P55789); assay: inhibitors of human ALR sulfhydryl oxidase, dose response, biochemical, H2O2 detection, luminescence, cherry-pick (AID 493248)
[10] = system: INS1; assay: beta cell apoptosis inhibitors, cytokine rescue, dose response, luminescence, retest (AID 449756); type: functional, cell-based; conditions: Rattus norvegicus;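 note: cell death triggered by IL-1 beta plus TNF-alpha plus IFN-gamma mixture; protective hits raise ATP signal compared with cytokine alone wells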
[11] = Luminescence Cell-Based Dose Retest to Confirm Inhibitors of Cancer Stem Cells. [Related pubchem assays (depositor defined):AID2717, AID2721]; type: functional; conditions: Homo sapiens
[12] = microbe, parasite or virus in culture; type: functional; conditions: Mycobacterium tuberculosis
[13] = system: H9c2; assay: cells; type: functional, cell-based; conditions: Rattus norvegicus, H9c2, Myocardium;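 note: confirmatory concentration-response retest of ultra-high-throughput screening hits for modulation of myocardial damage; cell death induced by hydrogen peroxide oxidative stress; compound pretreatment for 60 min then peroxide exposure for 2 h; potency is for protecting the cells against peroxide damage rather than for killing them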
[14] = system: Vero; assay: cells; type: functional; conditions: Chlorocebus sabaeus
[15] = biological target: T3, Polyadenylate-binding protein 1 (Homo sapiens, UniProt P11940); assay: PABP1 MLLE–PAM2 binding inhibitor potency, dose response, biochemical, fluorescence polarization, FITC-PAM2 peptide (AID 602259); type: functional; conditions: read-out: IC50_Mean
[16] = biological target: T3, Polyadenylate-binding protein 1; assay: PABP1 MLLE–PAM2 interaction inhibitors, dose response, miRNA deadenylation inhibitor project, biochemical, fluorescence polarization, Cy5-PAM2 peptide, secondary (AID 602260); type: functional; conditions: read-out: IC50_Mean
[17] = system: BJ; assay: cytotoxicity toward BJ-TERT-LT-ST fibroblasts, dose response, cell-based, RAS-independent, luminescence (AID 1935); type: functional; conditions: Homo sapiens;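 note: BJ fibroblasts immortalized with TERT plus LT and ST oncogenes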
[18] = system: BJ; assay: cells; type: functional, cell-based; conditions: Homo sapiens
[19] = cytotoxicity toward DRD oncogenic fibroblasts, dose response, cell-based, non-viral oncogenic, luminescence (AID 1934); type: functional; conditions: Homo sapiens
[20] = system: BJ; assay: cytotoxicity toward BJ-TERT fibroblasts, dose response, cell-based, RAS-independent, luminescence (AID 1933); type: functional; conditions: Homo sapiens
[21] = biological target: T4, Fatty acid synthase (Homo sapiens, UniProt P49327); assay: FAS thioesterase domain inhibitors, dose response, biochemical, kinetic fluorescence intensity (AID 624326); type: functional;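 note: rate of fluorescence rise from hydrolysis of a fluorogenic O-methyl fluorescein ester substrate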
[22] = biological target: T4, Fatty acid synthase; assay: FAS thioesterase domain inhibitors, dose response, biochemical, endpoint fluorescence intensity, uHTS hits (AID 624327); type: functional;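 note: fluorescence from hydrolysis of an O-methyl fluorescein acyl ester substrate by the enzyme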
[23] = ZM109 Env clade C HIV-1 fusion inhibitors, dose response, HeLa effector, CEM target cells, luciferase, cherry-pick (AID 652058); type: functional, cell-based
[24] = inhibitors of HIV Env-driven cell fusion, dose response, cherry-pick (AID 652057); type: functional, cell-based
[25] = biological target: T5, Zinc finger protein mex-5 (Caenorhabditis elegans, UniProt Q9XUB2); assay: MEX-5/TCR-2 RNA interaction inhibitors, dose response, biochemical, C. elegans, fluorescence polarization (AID 1960)
T5 sequence (Q9XUB2 whole entry): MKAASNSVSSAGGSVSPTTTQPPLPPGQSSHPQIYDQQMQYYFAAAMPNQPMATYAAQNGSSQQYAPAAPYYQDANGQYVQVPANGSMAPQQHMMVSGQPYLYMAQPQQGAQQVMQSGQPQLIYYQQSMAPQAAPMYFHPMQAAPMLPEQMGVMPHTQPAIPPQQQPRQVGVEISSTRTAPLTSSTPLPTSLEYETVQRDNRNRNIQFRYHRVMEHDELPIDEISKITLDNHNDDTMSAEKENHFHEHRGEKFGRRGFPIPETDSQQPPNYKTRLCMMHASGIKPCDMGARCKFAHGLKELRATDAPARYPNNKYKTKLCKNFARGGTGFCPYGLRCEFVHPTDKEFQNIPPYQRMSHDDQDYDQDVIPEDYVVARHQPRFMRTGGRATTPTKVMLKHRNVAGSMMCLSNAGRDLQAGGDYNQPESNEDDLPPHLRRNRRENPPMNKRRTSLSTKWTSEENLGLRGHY

[26] = biological target: T6, RNA-binding protein pos-1 (Caenorhabditis elegans, UniProt G5EF15); assay: inhibitors of POS-1/mex-3 RNA binding, dose response, biochemical, fluorescence polarization (AID 1964);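 note: purified POS-1 fused to maltose binding protein made in E. coli; potency of compounds blocking POS-1 binding to fluorescent RNA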
T6 sequence (G5EF15 whole entry): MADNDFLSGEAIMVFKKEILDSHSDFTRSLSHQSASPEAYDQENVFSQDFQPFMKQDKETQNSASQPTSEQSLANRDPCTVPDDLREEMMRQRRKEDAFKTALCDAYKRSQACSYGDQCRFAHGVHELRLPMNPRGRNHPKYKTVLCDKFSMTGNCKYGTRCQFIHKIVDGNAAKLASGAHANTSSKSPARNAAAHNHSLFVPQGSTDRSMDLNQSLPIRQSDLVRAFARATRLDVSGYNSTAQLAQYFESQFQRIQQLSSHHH

[27] = biological target: Large T antigen (Simian virus 40, UniProt P03070); type: functional, Betapolyomavirus macacae;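 note: Confirmatory-stage PubChem screen for compounds that inhibit SV40 T antigen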
Large T antigen, sequence (P03070 whole entry): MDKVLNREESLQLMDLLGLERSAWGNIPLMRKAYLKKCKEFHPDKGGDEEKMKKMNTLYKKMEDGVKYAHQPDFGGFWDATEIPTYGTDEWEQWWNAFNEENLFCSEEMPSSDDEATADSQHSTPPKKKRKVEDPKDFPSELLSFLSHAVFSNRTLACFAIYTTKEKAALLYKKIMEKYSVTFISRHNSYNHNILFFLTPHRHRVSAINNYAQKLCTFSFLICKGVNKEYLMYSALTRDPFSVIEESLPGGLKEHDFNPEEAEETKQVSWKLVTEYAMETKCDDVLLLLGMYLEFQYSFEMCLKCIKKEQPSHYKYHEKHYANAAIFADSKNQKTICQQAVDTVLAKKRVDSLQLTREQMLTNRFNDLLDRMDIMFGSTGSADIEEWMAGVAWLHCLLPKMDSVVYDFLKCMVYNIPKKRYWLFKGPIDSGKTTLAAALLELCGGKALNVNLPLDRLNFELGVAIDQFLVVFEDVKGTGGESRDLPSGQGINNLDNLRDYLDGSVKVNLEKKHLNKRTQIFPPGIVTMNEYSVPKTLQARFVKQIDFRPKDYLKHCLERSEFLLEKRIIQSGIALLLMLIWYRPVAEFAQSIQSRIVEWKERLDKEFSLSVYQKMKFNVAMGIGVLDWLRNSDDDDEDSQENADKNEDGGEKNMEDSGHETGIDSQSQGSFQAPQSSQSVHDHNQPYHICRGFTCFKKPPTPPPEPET

FAD-linked sulfhydryl oxidase ALR, sequence (P55789 whole entry): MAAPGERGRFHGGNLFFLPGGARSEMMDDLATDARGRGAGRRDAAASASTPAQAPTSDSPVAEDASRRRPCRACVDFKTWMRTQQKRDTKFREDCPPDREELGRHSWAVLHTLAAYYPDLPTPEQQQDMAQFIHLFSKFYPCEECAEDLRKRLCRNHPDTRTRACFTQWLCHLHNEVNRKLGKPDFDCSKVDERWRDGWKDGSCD
T4 sequence (P49327 whole entry, the tested form may be a part): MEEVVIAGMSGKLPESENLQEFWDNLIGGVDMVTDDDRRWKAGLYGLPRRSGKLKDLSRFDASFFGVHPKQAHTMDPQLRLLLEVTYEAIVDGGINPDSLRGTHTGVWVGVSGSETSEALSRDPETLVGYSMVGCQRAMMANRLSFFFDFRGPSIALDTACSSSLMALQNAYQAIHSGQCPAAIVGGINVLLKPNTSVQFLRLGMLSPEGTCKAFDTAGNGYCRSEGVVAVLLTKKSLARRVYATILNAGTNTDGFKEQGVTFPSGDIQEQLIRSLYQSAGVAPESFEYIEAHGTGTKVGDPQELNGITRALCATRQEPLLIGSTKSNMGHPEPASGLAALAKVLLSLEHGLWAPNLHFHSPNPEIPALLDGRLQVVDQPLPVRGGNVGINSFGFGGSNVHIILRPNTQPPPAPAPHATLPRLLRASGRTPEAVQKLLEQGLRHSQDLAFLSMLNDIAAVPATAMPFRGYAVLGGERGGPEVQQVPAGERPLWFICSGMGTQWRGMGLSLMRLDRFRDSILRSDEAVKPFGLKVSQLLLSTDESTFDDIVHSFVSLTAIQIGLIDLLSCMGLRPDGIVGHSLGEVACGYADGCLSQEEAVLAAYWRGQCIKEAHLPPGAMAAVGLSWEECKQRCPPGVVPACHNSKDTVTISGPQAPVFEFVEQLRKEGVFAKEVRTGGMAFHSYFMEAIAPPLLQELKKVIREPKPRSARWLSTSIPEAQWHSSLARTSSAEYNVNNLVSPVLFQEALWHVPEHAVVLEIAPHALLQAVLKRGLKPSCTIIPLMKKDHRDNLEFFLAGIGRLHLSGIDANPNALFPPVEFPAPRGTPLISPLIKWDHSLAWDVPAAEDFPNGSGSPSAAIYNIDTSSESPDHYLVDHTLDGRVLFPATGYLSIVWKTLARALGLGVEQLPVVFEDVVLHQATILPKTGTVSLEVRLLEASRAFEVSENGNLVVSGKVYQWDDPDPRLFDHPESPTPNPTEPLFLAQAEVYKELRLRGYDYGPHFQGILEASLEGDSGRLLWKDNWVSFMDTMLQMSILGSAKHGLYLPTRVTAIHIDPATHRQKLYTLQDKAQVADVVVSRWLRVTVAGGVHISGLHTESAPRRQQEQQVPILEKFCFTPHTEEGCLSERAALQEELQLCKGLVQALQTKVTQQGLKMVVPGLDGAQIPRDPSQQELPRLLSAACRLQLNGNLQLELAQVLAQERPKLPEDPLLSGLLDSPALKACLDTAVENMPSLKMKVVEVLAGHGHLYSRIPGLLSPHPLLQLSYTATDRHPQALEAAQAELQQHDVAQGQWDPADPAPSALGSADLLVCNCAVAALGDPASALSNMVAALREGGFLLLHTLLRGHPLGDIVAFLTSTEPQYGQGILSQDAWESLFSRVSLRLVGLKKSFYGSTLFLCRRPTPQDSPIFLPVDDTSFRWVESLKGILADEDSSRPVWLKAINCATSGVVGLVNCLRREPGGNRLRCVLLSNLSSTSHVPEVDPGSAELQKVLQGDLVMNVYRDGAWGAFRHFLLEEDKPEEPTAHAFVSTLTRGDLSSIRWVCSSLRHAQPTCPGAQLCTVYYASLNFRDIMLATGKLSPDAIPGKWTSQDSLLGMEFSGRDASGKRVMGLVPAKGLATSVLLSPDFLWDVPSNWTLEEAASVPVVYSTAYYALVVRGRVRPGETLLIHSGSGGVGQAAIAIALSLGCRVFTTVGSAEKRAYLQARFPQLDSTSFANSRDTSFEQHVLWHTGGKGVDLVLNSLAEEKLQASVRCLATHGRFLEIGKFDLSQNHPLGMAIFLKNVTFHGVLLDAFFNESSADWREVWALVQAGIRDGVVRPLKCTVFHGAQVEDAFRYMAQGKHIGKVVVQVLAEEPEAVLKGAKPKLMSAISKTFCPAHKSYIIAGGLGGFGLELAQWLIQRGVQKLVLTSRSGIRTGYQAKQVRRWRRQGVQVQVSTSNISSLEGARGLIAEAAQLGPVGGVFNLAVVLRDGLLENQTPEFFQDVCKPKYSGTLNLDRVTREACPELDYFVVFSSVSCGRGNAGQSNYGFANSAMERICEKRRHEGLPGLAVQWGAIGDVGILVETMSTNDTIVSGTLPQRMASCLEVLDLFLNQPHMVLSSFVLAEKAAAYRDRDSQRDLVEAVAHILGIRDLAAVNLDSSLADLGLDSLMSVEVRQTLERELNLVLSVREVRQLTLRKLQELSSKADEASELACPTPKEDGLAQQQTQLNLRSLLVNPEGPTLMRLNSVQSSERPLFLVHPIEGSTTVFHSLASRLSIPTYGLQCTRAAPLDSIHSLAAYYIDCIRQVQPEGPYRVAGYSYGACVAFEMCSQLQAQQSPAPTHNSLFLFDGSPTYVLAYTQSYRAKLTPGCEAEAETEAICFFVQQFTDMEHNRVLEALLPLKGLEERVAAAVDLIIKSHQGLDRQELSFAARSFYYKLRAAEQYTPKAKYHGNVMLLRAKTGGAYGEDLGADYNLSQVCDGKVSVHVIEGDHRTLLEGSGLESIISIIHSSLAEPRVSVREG
T3 sequence (P11940 whole entry): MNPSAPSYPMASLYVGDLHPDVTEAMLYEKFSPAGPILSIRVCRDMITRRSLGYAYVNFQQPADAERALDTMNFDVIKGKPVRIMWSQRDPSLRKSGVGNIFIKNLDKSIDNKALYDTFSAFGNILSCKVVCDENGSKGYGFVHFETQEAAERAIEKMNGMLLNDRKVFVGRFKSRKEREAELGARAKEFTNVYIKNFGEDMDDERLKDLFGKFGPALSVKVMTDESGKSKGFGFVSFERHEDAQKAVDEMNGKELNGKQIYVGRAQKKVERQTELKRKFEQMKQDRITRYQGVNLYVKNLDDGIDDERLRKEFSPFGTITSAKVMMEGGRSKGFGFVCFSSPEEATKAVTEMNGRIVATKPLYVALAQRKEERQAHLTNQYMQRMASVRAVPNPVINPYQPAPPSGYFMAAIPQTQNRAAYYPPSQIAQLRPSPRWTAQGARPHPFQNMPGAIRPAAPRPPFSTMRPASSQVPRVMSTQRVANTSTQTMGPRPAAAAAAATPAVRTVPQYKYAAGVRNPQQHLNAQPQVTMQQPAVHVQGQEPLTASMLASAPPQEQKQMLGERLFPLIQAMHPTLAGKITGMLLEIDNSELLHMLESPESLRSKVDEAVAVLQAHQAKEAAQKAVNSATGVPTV
Luciferin 4-monooxygenase, sequence (P08659 whole entry): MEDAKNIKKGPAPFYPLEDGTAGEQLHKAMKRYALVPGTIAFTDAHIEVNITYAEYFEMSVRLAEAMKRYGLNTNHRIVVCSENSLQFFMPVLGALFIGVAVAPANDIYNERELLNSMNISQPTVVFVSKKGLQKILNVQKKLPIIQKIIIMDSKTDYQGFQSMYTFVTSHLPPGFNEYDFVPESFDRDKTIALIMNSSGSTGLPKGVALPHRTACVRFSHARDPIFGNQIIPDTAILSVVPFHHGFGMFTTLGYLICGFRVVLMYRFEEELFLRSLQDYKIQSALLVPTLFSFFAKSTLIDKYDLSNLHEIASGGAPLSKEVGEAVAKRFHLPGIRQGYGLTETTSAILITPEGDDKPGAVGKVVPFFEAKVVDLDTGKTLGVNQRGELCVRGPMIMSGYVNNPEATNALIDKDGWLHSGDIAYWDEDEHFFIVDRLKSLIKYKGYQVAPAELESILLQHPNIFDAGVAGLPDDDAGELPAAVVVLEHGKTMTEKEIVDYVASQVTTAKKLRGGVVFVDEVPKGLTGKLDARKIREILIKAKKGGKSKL
Cytochrome P450 2C19, sequence (P33261 whole entry): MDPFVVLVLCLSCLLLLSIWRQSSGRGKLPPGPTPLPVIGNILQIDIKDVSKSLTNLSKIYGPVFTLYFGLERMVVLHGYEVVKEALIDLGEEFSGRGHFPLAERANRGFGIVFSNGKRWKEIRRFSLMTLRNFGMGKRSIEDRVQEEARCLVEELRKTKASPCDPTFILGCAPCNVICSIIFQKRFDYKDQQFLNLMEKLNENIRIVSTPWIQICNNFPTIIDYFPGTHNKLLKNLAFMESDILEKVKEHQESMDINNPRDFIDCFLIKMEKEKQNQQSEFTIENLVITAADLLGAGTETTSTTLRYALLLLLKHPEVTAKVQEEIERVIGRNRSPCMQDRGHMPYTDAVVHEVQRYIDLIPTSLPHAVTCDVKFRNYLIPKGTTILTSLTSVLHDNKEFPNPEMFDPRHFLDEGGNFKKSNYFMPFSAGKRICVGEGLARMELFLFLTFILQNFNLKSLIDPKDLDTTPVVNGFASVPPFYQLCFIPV

N#Cc1c(N)n(CCOC(=O)c2ccc(Cl)cc2)c2nc3ccccc3nc12
EC50 [1]: 1.8 µM (active)
AC50 [2]: 3.18 µM (active)

CCCCCCCCC[n+]1cccc2c3ccccc3ccc21
EC50 [3]: 0.868 µM (active)
EC50 [4]: 0.798 µM (active)
EC50 [5]: 64.7 µM (active)
EC50 [6]: 67.9 µM (active)
IC50 [7]: 49.8 µM (inactive)
AC50 [8]: 20 µM (inconclusive)

O=C(C#Cc1ccccc1)Nc1cccc(F)c1
AC50 [9]: 2 µM (active)
AC50 [10]: 8.05 µM (active)
AC50 [11]: 2.35 µM (active)

c1ccc(C[C@H]2CN=C(Nc3ccccc3)N2CCCC2CCCC2)cc1
CC50 [12]: > 40 µM (active)

COc1cc(-c2nnc(-c3cc(OC)c(OC)c(OC)c3)o2)cc(OC)c1OC
EC50 [5]: 41 µM (active)
EC50 [6]: > 112 µM (not active)
IC50 [13]: > 79 µM (inactive)

Cc1ccc(OCc2cc(C(=O)N(C)Cc3cnc4ccccn34)no2)cc1C
CC50 [12]: > 40 µM (active)

COCc1n[nH]c2c1C(c1ccccc1OC)C(C#N)=C(N)O2 (centres undefined)
EC50 [1]: 4.77 µM (active)
AC50 [2]: 22 µM (active)

CCOCCOC(=O)c1[nH]c2c(c1C)C(=O)CC(c1cccs1)C2 (centres undefined)
IC50 [7]: > 80 µM (inactive)

N#CCSc1nc2cc(C(=O)N3CCC(C(N)=O)CC3)ccc2c2nc3ccccc3n12
IC50 [13]: > 79 µM (inactive)

COc1cc(C#Cc2c(-c3cncn3C)n(C)c3ccc(-c4cnc(N5CCOCC5)nc4)cc23)cc(OC)c1
CC50 [12]: 29.3 µM (active)

NS(=O)(=O)c1ccc(CCNC(=O)CN2CCN(c3ccccc3O)CC2)cc1
AC50 [9]: 3.94 µM (active)

OCCCNCc1ccc(N(c2ccccc2)c2ccccc2)cc1
CC50 [14]: > 25 µM (active)

O=c1[nH]n(Cc2ccccc2)c(=O)c2ccccc12
IC50 [13]: > 79 µM (inactive)

S=C(Nc1ccc(Nc2ccccc2)cc1)Nc1ccccn1
AC50 [10]: 6.34 µM (active)
IC50 [15]: > 66 µM (inactive)
CC50 [12]: > 40 µM (active)
IC50 [16]: > 66 µM (inactive)

CCOc1cc(C2C(C#N)=C(N)Oc3[nH]nc(CC)c32)ccc1OCCN1CCOCC1 (centres undefined)
EC50 [1]: 7.2 µM (active)
AC50 [2]: 27.2 µM (active)

O=C1c2cc([N+](=O)[O-])ccc2-c2ncccc21
EC50 [1]: 11.1 µM (active)
EC50 [17]: > 150 µM (not active)
EC50 [18]: > 150 µM (not active)
EC50 [19]: > 150 µM (not active)
EC50 [20]: 24.4 µM (active)
AC50 [2]: 36.7 µM (active)

O=C(CN(c1ccc2c(c1)OCCO2)S(=O)(=O)c1ccccc1)Nc1ccc2c(c1)OCO2
IC50 [13]: > 79 µM (inactive)

Cn1c(=O)c2c(nc(NCc3ccc4c(c3)OCO4)n2C)n(C)c1=O
IC50 [13]: 36.1 µM (inactive)

Cc1ccc(S(=O)(=O)Nc2cccc(-c3ccc4nncn4n3)c2)cc1
IC50 [7]: > 80 µM (inactive)
IC50 [21]: 21.3 µM (inactive)
IC50 [22]: 15.7 µM (active)

O=C1C=C(c2ccc3ncccc3c2)C[C@@H](c2ccc3c(c2)OCO3)C1
IC50 [7]: > 80 µM (inactive)

CC1CCCN(CCCNC(=O)c2ccc3c(c2)N(Cc2cccc(Cl)c2)C(=O)c2ccccc2[S+]3[O-])C1 (centres undefined)
CC50 [14]: > 25 µM (active)

O=C(COC(=O)Cc1nnc(O)c2ccccc12)Nc1c(Br)cc([N+](=O)[O-])cc1Br
IC50 [13]: > 79 µM (inactive)

CCN1C(=O)[C@H]2[C@H]3CN=C(SCc4ccc(C#N)cc4)N3[C@@](Cc3ccccc3)(C(=O)OC)[C@H]2C1=O
IC50 [13]: > 79 µM (inactive)

CCOC(=O)c1cc(-c2ccc(/C=N\n3cnnc3)o2)ccc1Cl
IC50 [13]: > 79 µM (inactive)

Cc1cc(-c2nnc(S)n2/N=C/c2ccc(Cl)c([N+](=O)[O-])c2)[nH]n1
AC50 [9]: 3.45 µM (active)

C[C@@H]1CN([C@H](C)CO)C(=O)c2cc(C#Cc3ccncc3)cnc2O[C@@H]1CN(C)S(=O)(=O)c1ccccc1F
AC50 [23]: 25.1 µM (active)
AC50 [24]: 30 µM (active)

CC(=O)O[C@H]1C(=O)[C@]2(C)[C@H]([C@H](OC(=O)c3ccccc3)[C@]3(O)C[C@H](OC(=O)[C@H](O)[C@@H](NC(=O)c4ccccc4)c4ccccc4)C(C)=C1C3(C)C)[C@]1(OC(C)=O)CO[C@@H]1C[C@@H]2O
IC50 [7]: > 80 µM (inactive)

COc1cc(/C=N/Nc2nc(O)nnc2C)ccc1O
EC50 [25]: 31.1 µM (active)
AC50 [9]: 4.13 µM (active)
EC50 [26]: 56.8 µM (active)
IC50 [27]: 6.41 µM (active)
